Literature values as cited in patent publication US20080213433A1, “Fluid compositions comprising polyphenols and methods for making and packaging the same” (priority 2006, published 2008).

Key:
[1] = molecular target: T1, SIRT1 (Homo sapiens, UniProt Q96EB6); settings: sirtuin enzyme; cis-isomer compared to trans-resveratrol
T1 sequence (Q96EB6 1-747): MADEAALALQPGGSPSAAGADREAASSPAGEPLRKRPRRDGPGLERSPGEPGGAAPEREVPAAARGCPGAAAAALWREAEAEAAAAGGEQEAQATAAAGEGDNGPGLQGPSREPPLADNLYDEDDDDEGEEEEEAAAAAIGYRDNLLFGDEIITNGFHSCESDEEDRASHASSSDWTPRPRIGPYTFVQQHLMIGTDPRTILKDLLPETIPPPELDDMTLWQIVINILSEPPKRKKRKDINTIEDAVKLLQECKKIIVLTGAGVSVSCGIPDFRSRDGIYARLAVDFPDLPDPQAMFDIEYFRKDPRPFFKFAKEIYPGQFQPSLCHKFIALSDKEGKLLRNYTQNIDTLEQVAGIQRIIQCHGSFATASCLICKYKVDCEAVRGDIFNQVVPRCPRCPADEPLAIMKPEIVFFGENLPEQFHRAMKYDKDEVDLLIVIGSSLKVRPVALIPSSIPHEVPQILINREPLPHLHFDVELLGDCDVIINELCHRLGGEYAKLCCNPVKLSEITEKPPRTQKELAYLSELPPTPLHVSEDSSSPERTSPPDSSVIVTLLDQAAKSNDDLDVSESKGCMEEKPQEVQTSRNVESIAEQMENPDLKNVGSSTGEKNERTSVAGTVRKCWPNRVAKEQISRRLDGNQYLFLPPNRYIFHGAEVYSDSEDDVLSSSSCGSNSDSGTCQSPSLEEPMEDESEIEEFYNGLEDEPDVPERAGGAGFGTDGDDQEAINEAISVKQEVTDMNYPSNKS

[2] = β-glucosidases in the human intestines hydrolyze piceid and release free trans-resveratrol

| Structure (SMILES) | stimulation / activation of SIRT1 [1] | bioavailability of trans-resveratrol derived from the β-glucosidic form vs the free form in solution [2] |
| --- | --- | --- |
| Oc1ccc(/C=C\c2cc(O)cc(O)c2)cc1 [Cis-resveratrol] | considerably less efficacy | – |
| OCC1OC(Oc2cc(O)cc(/C=C/c3ccc(O)cc3)c2)C(O)C(O)C1O (stereo not drawn) [piceid, 2-[3-hydroxy-5-[(E)-2-(4-hydroxyphenyl)ethenyl]phenoxy]-6-(hydroxymethyl)oxane-3,4,5-triol] | – | equivalent |
| Oc1ccc(/C=C/c2cc(O)cc(O)c2)cc1 [Trans-resveratrol] | stimulate | – |
